# Laboratory results taken from US20240116920A1 (priority 2020, published 2024).
# Key:
# [1] = target: T1, JAK3 (Homo sapiens, UniProt P52333); experiment: biochemical
# T1 sequence (P52333 1-1124): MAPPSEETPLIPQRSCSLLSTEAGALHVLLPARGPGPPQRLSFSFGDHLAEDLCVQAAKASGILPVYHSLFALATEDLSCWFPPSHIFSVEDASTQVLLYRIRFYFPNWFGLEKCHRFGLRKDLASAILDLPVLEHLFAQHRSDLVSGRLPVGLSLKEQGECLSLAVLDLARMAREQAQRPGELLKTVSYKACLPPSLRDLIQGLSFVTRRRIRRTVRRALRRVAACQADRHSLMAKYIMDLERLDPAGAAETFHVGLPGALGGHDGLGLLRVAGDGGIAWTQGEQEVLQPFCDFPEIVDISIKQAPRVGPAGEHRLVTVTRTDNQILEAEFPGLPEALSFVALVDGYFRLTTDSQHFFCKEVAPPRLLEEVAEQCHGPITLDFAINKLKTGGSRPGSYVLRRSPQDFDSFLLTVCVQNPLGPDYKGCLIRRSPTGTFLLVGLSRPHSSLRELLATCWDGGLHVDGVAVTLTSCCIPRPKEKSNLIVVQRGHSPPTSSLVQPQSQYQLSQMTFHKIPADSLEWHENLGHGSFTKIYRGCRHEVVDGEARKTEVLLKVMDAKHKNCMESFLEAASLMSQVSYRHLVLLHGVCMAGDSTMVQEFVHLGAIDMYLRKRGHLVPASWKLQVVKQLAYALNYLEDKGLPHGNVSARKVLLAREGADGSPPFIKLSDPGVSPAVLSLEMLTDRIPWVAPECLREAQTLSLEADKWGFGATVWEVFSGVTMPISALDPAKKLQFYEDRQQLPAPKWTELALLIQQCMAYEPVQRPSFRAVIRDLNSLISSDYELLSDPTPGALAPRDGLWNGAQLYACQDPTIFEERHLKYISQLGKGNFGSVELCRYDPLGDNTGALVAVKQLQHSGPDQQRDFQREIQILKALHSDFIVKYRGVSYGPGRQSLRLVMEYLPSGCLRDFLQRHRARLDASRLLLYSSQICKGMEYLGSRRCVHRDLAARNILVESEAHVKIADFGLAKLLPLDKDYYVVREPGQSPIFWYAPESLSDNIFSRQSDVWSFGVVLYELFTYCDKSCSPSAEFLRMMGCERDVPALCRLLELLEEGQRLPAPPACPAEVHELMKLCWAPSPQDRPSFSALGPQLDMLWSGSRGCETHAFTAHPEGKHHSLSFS
# [2] = target: JAK2 (Homo sapiens, UniProt O60674); experiment: biochemical
# Chain of JAK2 (O60674 whole entry): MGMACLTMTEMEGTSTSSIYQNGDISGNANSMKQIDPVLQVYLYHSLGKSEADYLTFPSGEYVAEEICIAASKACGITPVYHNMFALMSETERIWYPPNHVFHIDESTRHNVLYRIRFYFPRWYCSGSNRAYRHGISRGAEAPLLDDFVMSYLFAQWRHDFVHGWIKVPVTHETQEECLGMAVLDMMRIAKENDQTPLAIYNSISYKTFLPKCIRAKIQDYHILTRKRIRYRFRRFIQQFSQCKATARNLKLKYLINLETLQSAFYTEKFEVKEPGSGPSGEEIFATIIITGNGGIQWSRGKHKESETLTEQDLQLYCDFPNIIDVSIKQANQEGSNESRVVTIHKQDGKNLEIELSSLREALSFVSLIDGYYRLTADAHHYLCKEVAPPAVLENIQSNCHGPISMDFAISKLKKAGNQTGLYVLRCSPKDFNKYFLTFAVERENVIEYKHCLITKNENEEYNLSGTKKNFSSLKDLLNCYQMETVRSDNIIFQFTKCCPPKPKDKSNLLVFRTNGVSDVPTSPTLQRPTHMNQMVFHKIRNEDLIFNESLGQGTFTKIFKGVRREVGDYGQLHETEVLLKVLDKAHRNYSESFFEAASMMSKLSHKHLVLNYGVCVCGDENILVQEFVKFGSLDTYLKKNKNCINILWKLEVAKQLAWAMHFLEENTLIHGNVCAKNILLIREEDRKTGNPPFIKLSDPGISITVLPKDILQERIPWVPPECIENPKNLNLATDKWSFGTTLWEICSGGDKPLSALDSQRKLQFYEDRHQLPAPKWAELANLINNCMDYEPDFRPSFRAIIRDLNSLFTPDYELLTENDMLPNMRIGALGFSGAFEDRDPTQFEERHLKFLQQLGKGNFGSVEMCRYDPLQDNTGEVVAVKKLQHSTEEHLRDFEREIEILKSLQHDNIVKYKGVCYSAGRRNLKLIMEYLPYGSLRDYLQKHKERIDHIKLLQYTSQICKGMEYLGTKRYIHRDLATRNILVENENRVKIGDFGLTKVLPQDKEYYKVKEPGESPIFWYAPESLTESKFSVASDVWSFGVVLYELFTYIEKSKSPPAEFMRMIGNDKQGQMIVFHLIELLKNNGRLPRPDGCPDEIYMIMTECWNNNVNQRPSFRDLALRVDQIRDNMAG
# [3] = target: TYK2 (Homo sapiens, UniProt P29597); experiment: biochemical
# Chain of TYK2 (P29597 whole entry): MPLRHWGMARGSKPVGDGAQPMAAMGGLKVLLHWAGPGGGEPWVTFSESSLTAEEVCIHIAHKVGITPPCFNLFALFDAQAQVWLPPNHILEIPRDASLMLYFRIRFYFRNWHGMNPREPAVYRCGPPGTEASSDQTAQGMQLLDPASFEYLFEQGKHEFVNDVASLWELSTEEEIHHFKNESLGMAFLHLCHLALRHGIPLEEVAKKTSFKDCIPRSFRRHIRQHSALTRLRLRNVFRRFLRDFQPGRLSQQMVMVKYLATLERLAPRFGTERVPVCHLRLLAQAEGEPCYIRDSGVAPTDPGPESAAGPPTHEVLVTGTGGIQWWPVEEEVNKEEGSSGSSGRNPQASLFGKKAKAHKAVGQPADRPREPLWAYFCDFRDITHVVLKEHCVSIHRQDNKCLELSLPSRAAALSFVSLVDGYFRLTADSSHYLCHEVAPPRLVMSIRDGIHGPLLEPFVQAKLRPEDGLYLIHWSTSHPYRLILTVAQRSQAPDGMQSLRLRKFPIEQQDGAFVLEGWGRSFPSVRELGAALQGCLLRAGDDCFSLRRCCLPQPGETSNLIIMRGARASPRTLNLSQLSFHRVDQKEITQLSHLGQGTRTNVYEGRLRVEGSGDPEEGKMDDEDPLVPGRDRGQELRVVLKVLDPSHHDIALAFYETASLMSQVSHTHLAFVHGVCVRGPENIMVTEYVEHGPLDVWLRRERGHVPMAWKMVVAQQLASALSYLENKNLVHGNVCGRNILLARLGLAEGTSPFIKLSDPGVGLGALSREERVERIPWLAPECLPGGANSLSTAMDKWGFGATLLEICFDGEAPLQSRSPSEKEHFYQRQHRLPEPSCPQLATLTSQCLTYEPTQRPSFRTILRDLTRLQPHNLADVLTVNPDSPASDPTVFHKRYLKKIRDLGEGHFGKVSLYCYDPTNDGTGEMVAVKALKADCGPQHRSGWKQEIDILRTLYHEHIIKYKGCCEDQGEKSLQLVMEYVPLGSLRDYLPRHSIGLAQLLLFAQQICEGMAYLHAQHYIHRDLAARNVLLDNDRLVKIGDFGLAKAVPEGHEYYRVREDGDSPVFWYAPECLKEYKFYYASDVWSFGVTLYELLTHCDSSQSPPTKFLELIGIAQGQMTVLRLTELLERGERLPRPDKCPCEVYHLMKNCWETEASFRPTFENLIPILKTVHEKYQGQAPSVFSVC
# [4] = system: JAK1/STAT3 signaling; experiment: Immunobit cell-based pSTAT3 and pSTAT5 immunoassay; design: species or system human
# [5] = system: LX-2 human hepatic stellate cells; experiment: TGF-β-induced LX-2 cell proliferation (CCK8); type: cell-based
Compound,IC50 [1] [nM],IC50 [2] [nM],IC50 [3] [nM],"effect on JAK/STAT signaling (pSTAT3, pSTAT5) [4]","inhibitory effect on LX-2 proliferation induced by TGF-β ([5]; LX-2, TGF-β-induced, CCK8)",inhibitory effect on LX-2 cell growth versus tofacitinib or filgotinib ([5]; incubation with TGF-β for 72 h)
CNC(=O)c1cnc2[nH]ccc2c1N[C@@H]1CCN(Cc2cnc(C(F)(F)F)nc2)[C@H](C)C1 (racemic) [compound 49],8.39,8.78,36.9,,,
O=C(Nc1nc2cccc(-c3ccc(CN4CCS(=O)(=O)CC4)cc3)n2n1)C1CC1 [filgotinib],,,,"reduced pSTAT3 and pSTAT5, but with less effect than 31g",,
COC(=O)c1ccc2c(c1)NC(=O)/C2=C(\Nc1ccc(N(C)C(=O)CN2CCN(C)CC2)cc1)c1ccccc1 [nintedanib],,,,did not affect the JAK/STAT pathway,dose-dependent inhibitory effects,superior to those of tofacitinib or filgotinib
